Test results: patent US20250099466A1 (BRISTOL-MYERS SQUIBB COMPANY, priority 2021, published 2025)

Tested on: subjects undergoing elective total knee replacement surgery
Test: Phase 2 study of milvexian versus enoxaparin after elective total knee replacement: venous thromboembolism events
Assay type: in vivo, human
Conditions: for Major VTE % / Major VTE n / Total VTE % / Total VTE RR vs. Enoxaparin / Total VTE n: mITT, Day 14; for Asymptomatic distal DVT % / Asymptomatic distal DVT n / Asymptomatic proximal DVT % / Asymptomatic proximal DVT n / Death n / Distal DVT % / Distal DVT n / Non-fatal PE n / Proximal DVT % / Proximal DVT n / Symptomatic distal DVT n / Symptomatic proximal DVT n / Non-fatal PE % / Symptomatic distal DVT %: through day 14; for incidence of segments with the most severe DVT severity score of 3: subjects with DVT on venography
Description: [table] […] The study used a prospective, randomized, open-label, blinded endpoint (PROBE) design. […] The enoxaparin control arm likewise completed its pre-specified randomization of 300 subjects. […] FIG. 1 provides the study design, including number of subjects randomized into each study arm. […] An adaptive design was used to optimize patient recruitment for the dose-response evaluation. The number of dose regimens, the option to implement additional once daily dosing regimens, and the randomization ratio were based on the results of the periodic reviews and interim analysis. […] Randomization was performed postoperatively using a centralized interactive web-based response system and was stratified by geographic region of the study centers. […] Enoxaparin was given subcutaneously at a dose of 40 mg once daily and was started either the evening before or 12 to 24 hours after surgery. […] The primary efficacy outcome was venous thromboembolism, defined as the composite of asymptomatic deep-vein thrombosis (detected by mandatory unilateral venography performed 10 to 14 days after surgery), confirmed symptomatic venous thromboembolism (symptomatic deep-vein thrombosis of the leg or nonfatal pulmonary embolism), or death. […] Factor XI antisense oligonucleotide for prevention of venous thrombosis. N Engl J Med 2015; 372:232-40; Fuji et al., A dose-ranging study evaluating the oral factor Xa inhibitor edoxaban for the prevention of venous thromboembolism in patients undergoing total knee arthroplasty. J Thromb Haemost 2010; 8:2458-68). The major secondary efficacy outcomes were: (a) proximal deep-vein thrombosis (symptomatic or asymptomatic), (b) distal deep-vein thrombosis (symptomatic or asymptomatic) (c) nonfatal pulmonary embolism, and (d) death. An exploratory efficacy outcome was the extent of venous thrombosis on venography, which was assessed by the adjudication committee using predefined categories. […] Statistics in Medicine 2014; 33:1646-61). […] Venograms, assessed by independent blinded adjucators, were used to identify, and to assign DVT severity scores to, subjects with DVT. […] For each evaluated segment, a severity score was assigned depending on the presence and, if present, extension of the clot in the segment of the vein. Severity scores, on a scale of 0-3, were assigned as follows: 0=no clot; 1=less than ⅓; 2=greater than or equal to ⅓ but less than ⅔; and 3=greater than ⅔ the length of the vein segment.

[1] = milvexian all regimens combined
[2] = milvexian combined BID regimens

C[C@@H]1CCC[C@H](n2cnc(-c3cc(Cl)ccc3-n3cc(Cl)nn3)cc2=O)c2cc(ccn2)-c2c(cnn2C(F)F)NC1=O [milvexian, (5R,9S)-9-(4-(5-chloro-2-(4-chloro-1H-1,2,3-triazol-1-yl)phenyl)-6-oxopyrimidin-1(6H)-yl)-21-(difluoromethyl)-5-methyl-21H-3-aza-1(4,2)-pyridina-2(5,4)-pyrazolacyclononaphan-4-one]
Major VTE % (milvexian 25 mg BID): 0.8%
Major VTE n (milvexian 25 mg BID): 1 n
Total VTE % (milvexian 25 mg BID): 21.0%
Total VTE RR vs. Enoxaparin (milvexian 25 mg BID): 0.97
Total VTE n (milvexian 25 mg BID): 27 n
Major VTE % (milvexian 25 mg BID, listed as Milvexian): (0.8%)
Asymptomatic distal DVT % (milvexian 25 mg BID): 20.2%
Asymptomatic distal DVT n (milvexian 25 mg BID): 26 n
Asymptomatic proximal DVT % (milvexian 25 mg BID): 0.8%
Asymptomatic proximal DVT n (milvexian 25 mg BID): 1 n
Death n (milvexian 25 mg BID): 0 n
Distal DVT % (milvexian 25 mg BID): 20.2%
Distal DVT n (milvexian 25 mg BID): 26 n
Non-fatal PE n (milvexian 25 mg BID): 0 n
Proximal DVT % (milvexian 25 mg BID): 0.8%
Proximal DVT n (milvexian 25 mg BID): 1 n
Symptomatic distal DVT n (milvexian 25 mg BID): 0 n
Symptomatic proximal DVT n (milvexian 25 mg BID): 0 n
Major VTE n (milvexian 25 mg once daily): 0 n
Total VTE % (milvexian 25 mg once daily): (25.0%)
Total VTE RR vs. Enoxaparin (milvexian 25 mg once daily): 1.00
Total VTE n (milvexian 25 mg once daily): 7 n
Major VTE % (milvexian 50 mg BID): 0.8%
Major VTE n (milvexian 50 mg BID): 1 n
Total VTE % (milvexian 50 mg BID): 11.3%
Total VTE RR vs. Enoxaparin (milvexian 50 mg BID): 0.53
Total VTE n (milvexian 50 mg BID): 14 n
Major VTE % (milvexian 50 mg BID, listed as Milvexian): (0.8%)
incidence of segments with the most severe DVT severity score of 3 (milvexian 50 mg BID): 0%
Asymptomatic distal DVT % (milvexian 50 mg BID): 10.5%
Asymptomatic distal DVT n (milvexian 50 mg BID): 13 n
Asymptomatic proximal DVT n (milvexian 50 mg BID): 0 n
Death n (milvexian 50 mg BID): 0 n
Distal DVT % (milvexian 50 mg BID): 10.5%
Distal DVT n (milvexian 50 mg BID): 13 n
Non-fatal PE % (milvexian 50 mg BID): 0.8%
Non-fatal PE n (milvexian 50 mg BID): 1 n
Proximal DVT n (milvexian 50 mg BID): 0 n
Symptomatic distal DVT n (milvexian 50 mg BID): 0 n
Symptomatic proximal DVT n (milvexian 50 mg BID): 0 n
Major VTE % (milvexian 50 mg once daily): 1.6%
Major VTE n (milvexian 50 mg once daily): 2 n
Total VTE % (milvexian 50 mg once daily): (23.6%)
Total VTE RR vs. Enoxaparin (milvexian 50 mg once daily): 1.15
Total VTE n (milvexian 50 mg once daily): 30 n
Major VTE % (milvexian 50 mg once daily, listed as Milvexian): (1.6%)
Major VTE % (milvexian 100 mg BID): 1.5%
Major VTE n (milvexian 100 mg BID): 2 n
Total VTE % (milvexian 100 mg BID): 9.0%
Total VTE RR vs. Enoxaparin (milvexian 100 mg BID): 0.42
Total VTE n (milvexian 100 mg BID): 12 n
Major VTE % (milvexian 100 mg BID, listed as Milvexian): (1.5%)
incidence of segments with the most severe DVT severity score of 3 (milvexian 100 mg BID): 1.52%
Asymptomatic distal DVT % (milvexian 100 mg BID): 7.5%
Asymptomatic distal DVT n (milvexian 100 mg BID): 10 n
Asymptomatic proximal DVT % (milvexian 100 mg BID): 0.7%
Asymptomatic proximal DVT n (milvexian 100 mg BID): 1 n
Death n (milvexian 100 mg BID): 0 n
Distal DVT % (milvexian 100 mg BID): 7.5%
Distal DVT n (milvexian 100 mg BID): 10 n
Non-fatal PE % (milvexian 100 mg BID): 0.7%
Non-fatal PE n (milvexian 100 mg BID): 1 n
Proximal DVT % (milvexian 100 mg BID): 0.7%
Proximal DVT n (milvexian 100 mg BID): 1 n
Symptomatic distal DVT % (milvexian 100 mg BID): 0.7%
Symptomatic distal DVT n (milvexian 100 mg BID): 1 n
Symptomatic proximal DVT n (milvexian 100 mg BID): 0 n
Major VTE n (milvexian 200 mg BID): 0 n
Total VTE % (milvexian 200 mg BID): 7.6%
Total VTE RR vs. Enoxaparin (milvexian 200 mg BID): 0.37
Total VTE n (milvexian 200 mg BID): 10 n
incidence of segments with the most severe DVT severity score of 3 (milvexian 200 mg BID): 2.73%
Asymptomatic distal DVT % (milvexian 200 mg BID): 7.6%
Asymptomatic distal DVT n (milvexian 200 mg BID): 10 n
Asymptomatic proximal DVT n (milvexian 200 mg BID): 0 n
Death n (milvexian 200 mg BID): 0 n
Distal DVT % (milvexian 200 mg BID): 7.6%
Distal DVT n (milvexian 200 mg BID): 10 n
Non-fatal PE n (milvexian 200 mg BID): 0 n
Proximal DVT n (milvexian 200 mg BID): 0 n
Symptomatic distal DVT n (milvexian 200 mg BID): 0 n
Symptomatic proximal DVT n (milvexian 200 mg BID): 0 n
Major VTE n (milvexian 200 mg once daily): 0 n
Total VTE % (milvexian 200 mg once daily): (6.5%)
Total VTE RR vs. Enoxaparin (milvexian 200 mg once daily): 0.30
Total VTE n (milvexian 200 mg once daily): 8 n
incidence of segments with the most severe DVT severity score of 3 (milvexian 200 mg once daily): 0%
Total VTE % [1]: 13.6%
Total VTE n [1]: 108 n
reduction of total VTE compared to enoxaparin (milvexian at total daily doses of ≥200 mg): > 50%
Total VTE % [2]: 12.2%
Total VTE n [2]: 63 n
Asymptomatic distal DVT % [2]: 11.4%
Asymptomatic distal DVT n [2]: 59 n
Asymptomatic proximal DVT % [2]: 0.4%
Asymptomatic proximal DVT n [2]: 2 n
Death n [2]: 0 n
Distal DVT % [2]: 11.4%
Distal DVT n [2]: 59 n
Non-fatal PE % [2]: 0.4%
Non-fatal PE n [2]: 2 n
Proximal DVT % [2]: 0.4%
Proximal DVT n [2]: 2 n
Symptomatic distal DVT % [2]: 0.2%
Symptomatic distal DVT n [2]: 1 n
Symptomatic proximal DVT n [2]: 0 n
